Experimental data taken from PubChem BioAssay AID1259407 (Chemical Carcinogenesis Research Information System (CCRIS), 2018).
The source made the active and inactive calls. No rule for the calls is given here.

Test system: CCRIS mutagenicity, Ames/micronucleus/aberration tests
Assay: CCRIS mutagenicity studies
[1] = Test System: AMES SALMONELLA TYPHIMURIUM, Strain/Indicator: TA100, Metabolic Activation: NONE, Method: PREINCUBATION
[2] = Test System: AMES SALMONELLA TYPHIMURIUM, Strain/Indicator: TA98, Metabolic Activation: NONE, Method: PREINCUBATION
[3] = Test System: AMES SALMONELLA TYPHIMURIUM, Strain/Indicator: TA98, Metabolic Activation: RAT, LIVER, S-9, AROCLOR 1254, Method: PREINCUBATION
[4] = Test System: AMES SALMONELLA TYPHIMURIUM, Strain/Indicator: TA100, Metabolic Activation: RAT, LIVER, S-9, AROCLOR 1254, Method: PREINCUBATION

Measured: mutagenic call

CC(=O)CN(C)N=O
inactive: Test System: AMES SALMONELLA TYPHIMURIUM, Strain/Indicator: TA100, Metabolic Activation: HUMAN, LIVER, S-9, Method: PREINCUBATION inactive; negative | [1] inactive; negative | Test System: AMES SALMONELLA TYPHIMURIUM, Strain/Indicator: TA100, Metabolic Activation: RAT, LIVER, CYTOSOL, PCB, Method: PREINCUBATION inactive; negative | Test System: AMES SALMONELLA TYPHIMURIUM, Strain/Indicator: TA100, Metabolic Activation: RAT, LIVER, S-9 (HEATED), PCB, Method: PREINCUBATION inactive; negative | Test System: AMES SALMONELLA TYPHIMURIUM, Strain/Indicator: TA100, Metabolic Activation: RAT, LIVER, S-9, 3-METHYLCHOLANTHRENE, Method: PREINCUBATION inactive; negative | Test System: AMES SALMONELLA TYPHIMURIUM, Strain/Indicator: TA100, Metabolic Activation: RAT, LIVER, S-9 WITHOUT NADP+, PCB, Method: PREINCUBATION inactive; negative
active: Test System: AMES SALMONELLA TYPHIMURIUM, Strain/Indicator: TA100, Metabolic Activation: HAMSTER, LIVER, S-9, 3-METHYLCHOLANTHRENE, Method: PREINCUBATION active; positive | Test System: AMES SALMONELLA TYPHIMURIUM, Strain/Indicator: TA100, Metabolic Activation: HAMSTER, LIVER, S-9, PHENOBARBITAL, Method: PREINCUBATION active; positive | Test System: AMES SALMONELLA TYPHIMURIUM, Strain/Indicator: TA100, Metabolic Activation: MONKEY, LIVER, S-9, Method: PREINCUBATION active; positive | Test System: AMES SALMONELLA TYPHIMURIUM, Strain/Indicator: TA100, Metabolic Activation: MOUSE, LIVER, S-9, 3-METHYLCHOLANTHRENE, Method: PREINCUBATION active; positive | Test System: AMES SALMONELLA TYPHIMURIUM, Strain/Indicator: TA100, Metabolic Activation: MOUSE, LIVER, S-9, PHENOBARBITAL, Method: PREINCUBATION active; positive | Test System: AMES SALMONELLA TYPHIMURIUM, Strain/Indicator: TA100, Metabolic Activation: MOUSE, LIVER, S-9, Method: PREINCUBATION active; positive | Test System: AMES SALMONELLA TYPHIMURIUM, Strain/Indicator: TA100, Metabolic Activation: RABBIT, LIVER, S-9, Method: PREINCUBATION active; positive | Test System: AMES SALMONELLA TYPHIMURIUM, Strain/Indicator: TA100, Metabolic Activation: RAT, LIVER, MICROSOMES AND CYTOSOL, PCB, Method: PREINCUBATION active; positive | Test System: AMES SALMONELLA TYPHIMURIUM, Strain/Indicator: TA100, Metabolic Activation: RAT, LIVER, MICROSOMES AND G6PDH, PCB, Method: PREINCUBATION active; positive | Test System: AMES SALMONELLA TYPHIMURIUM, Strain/Indicator: TA100, Metabolic Activation: RAT, LIVER, MICROSOMES, PCB, Method: PREINCUBATION active; positive | Test System: AMES SALMONELLA TYPHIMURIUM, Strain/Indicator: TA100, Metabolic Activation: RAT, LIVER, S-9, PCB, Method: PREINCUBATION active; positive | Test System: AMES SALMONELLA TYPHIMURIUM, Strain/Indicator: TA100, Metabolic Activation: RAT, LIVER, S-9, PHENOBARBITAL, Method: PREINCUBATION active; positive | Test System: AMES SALMONELLA TYPHIMURIUM, Strain/Indicator: TA100, Method: PREINCUBATION active; positive | Test System: CHINESE HAMSTER V-79, Strain/Indicator: V-79/OUABAIN, Metabolic Activation: HAMSTER, HEPATOCYTES, Method: CELL-MEDIATED active; positive

C(CCOCC1CO1)COCC1CO1 (configuration not stated)
active: Test System: AMES SALMONELLA TYPHIMURIUM, Strain/Indicator: TA100, Metabolic Activation: HAMSTER, LIVER, S-9, AROCLOR 1254 (10%), Method: PREINCUBATION active; positive | [1] active; positive | Test System: AMES SALMONELLA TYPHIMURIUM, Strain/Indicator: TA100, Metabolic Activation: RAT, LIVER, S-9, AROCLOR 1254 (10%), Method: PREINCUBATION active; positive | Test System: AMES SALMONELLA TYPHIMURIUM, Strain/Indicator: TA1535, Metabolic Activation: HAMSTER, LIVER, S-9, AROCLOR 1254 (10%), Method: PREINCUBATION active; positive | Test System: AMES SALMONELLA TYPHIMURIUM, Strain/Indicator: TA1535, Metabolic Activation: NONE, Method: PREINCUBATION active; positive | Test System: AMES SALMONELLA TYPHIMURIUM, Strain/Indicator: TA1535, Metabolic Activation: RAT, LIVER, S-9, AROCLOR 1254 (10%), Method: PREINCUBATION active; positive

Cc1cnc2ccc3c(ncn3C)c2n1
inactive: [2] inactive; negative | [3] inactive; negative | [1] inactive; negative | [4] inactive; negative

Nc1nc2ccc(O)cc2[nH]1
inactive: [4] inactive; negative
active: [3] active; positive

CCn1cc(C(=O)O)c(=O)c2cnc(N3CCNCC3)nc21
active: Test System: AMES SALMONELLA TYPHIMURIUM, Strain/Indicator: TA102, Metabolic Activation: RAT LIVER S-9, AROCLOR 1254, Method: PREINCUBATION active; positive
inactive: End Point: In vitro micronucleus, Test System: WTK-1 human lymphoma cells, Metabolic Activation: None inactive; negative | [2] inactive; negative | Test System: AMES SALMONELLA TYPHIMURIUM, Strain/Indicator: TA98, Metabolic Activation: RAT LIVER S-9, AROCLOR 1254, Method: PREINCUBATION inactive; negative | [1] inactive; negative | Test System: AMES SALMONELLA TYPHIMURIUM, Strain/Indicator: TA100, Metabolic Activation: RAT LIVER S-9, AROCLOR 1254, Method: PREINCUBATION inactive; negative | Test System: AMES SALMONELLA TYPHIMURIUM, Strain/Indicator: TA104, Metabolic Activation: NONE, Method: PREINCUBATION inactive; negative | Test System: AMES SALMONELLA TYPHIMURIUM, Strain/Indicator: TA104, Metabolic Activation: RAT LIVER S-9, AROCLOR 1254, Method: PREINCUBATION inactive; negative | Test System: AMES SALMONELLA TYPHIMURIUM, Strain/Indicator: UHT8414, Metabolic Activation: NONE, Method: PREINCUBATION inactive; negative | Test System: AMES SALMONELLA TYPHIMURIUM, Strain/Indicator: UHT8414, Metabolic Activation: RAT LIVER S-9, AROCLOR 1254, Method: PREINCUBATION inactive; negative
